# Target: T1, PEDV RdRp (Nsp12) (Porcine epidemic diarrhea virus, UniProt K4NS01)
# T1 sequence (K4NS01 4101-5027): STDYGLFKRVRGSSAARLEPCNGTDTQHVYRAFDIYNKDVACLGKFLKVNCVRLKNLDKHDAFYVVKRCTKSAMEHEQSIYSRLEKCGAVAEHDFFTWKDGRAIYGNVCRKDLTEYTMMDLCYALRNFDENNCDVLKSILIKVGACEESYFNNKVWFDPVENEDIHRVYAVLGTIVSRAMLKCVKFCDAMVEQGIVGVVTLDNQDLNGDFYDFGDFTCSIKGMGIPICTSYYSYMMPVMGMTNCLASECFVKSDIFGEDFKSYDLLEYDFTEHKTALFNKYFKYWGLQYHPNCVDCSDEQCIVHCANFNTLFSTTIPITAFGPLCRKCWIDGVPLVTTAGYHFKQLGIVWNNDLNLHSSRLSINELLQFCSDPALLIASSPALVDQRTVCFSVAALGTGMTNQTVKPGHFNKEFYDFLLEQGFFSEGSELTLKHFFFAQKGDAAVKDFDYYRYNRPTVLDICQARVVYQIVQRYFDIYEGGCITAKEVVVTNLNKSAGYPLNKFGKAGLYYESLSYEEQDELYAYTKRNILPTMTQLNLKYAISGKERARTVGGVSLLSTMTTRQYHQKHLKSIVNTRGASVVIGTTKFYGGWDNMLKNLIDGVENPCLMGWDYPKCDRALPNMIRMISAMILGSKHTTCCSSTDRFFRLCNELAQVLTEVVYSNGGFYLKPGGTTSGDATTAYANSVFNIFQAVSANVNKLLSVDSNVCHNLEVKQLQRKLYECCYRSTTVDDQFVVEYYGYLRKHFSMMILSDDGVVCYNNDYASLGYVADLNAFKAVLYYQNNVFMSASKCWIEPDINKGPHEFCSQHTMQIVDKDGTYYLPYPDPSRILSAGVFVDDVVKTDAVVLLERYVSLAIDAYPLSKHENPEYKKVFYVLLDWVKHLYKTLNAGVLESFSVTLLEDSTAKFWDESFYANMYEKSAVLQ
# Experiment: CoV-RdRp-Gluc luciferase reporter assay in transfected HEK-293T cells
# Type: cell-based
smiles,measurement,value
CC(C)/N=c1\cc2n(-c3ccc(Cl)cc3)c3ccccc3nc-2cc1Nc1ccc(Cl)cc1 [clofazimine],IC50,136 nM

# From PMC12282428 (Virologica Sinica, 2025)
